Measurements reported in patent EP2951180B1, “2,6,7,8 SUBSTITUTED PURINES AS HDM2 INHIBITORS” (Merck Sharp & Dohme Corp., priority 2013, dated 2014).

Target: T1, HDM2 (Homo sapiens, UniProt Q00987)
T1 construct: Thioredoxin (N); made in house; host or cells: E. coli strain BL21(DE3)Rosetta
Assay: HDM2 FRET assay (inhibition of binding of FITC labeled p53-pocket peptide to HDM2)
Settings: Table 11; read-out: FRET IC50
Method in brief: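 Signal is read as the 520/495 nm emission ratio and converted to percent inhibition; nonlinear sigmoidal regression yields IC50. The assay mixes HDM2 (0.5 nM), FITC-p53 peptide (3 nM) and Tb anti-His antibody (0.25 nM) at 0.1% DMSO.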

T1 sequence (Q00987 17-125): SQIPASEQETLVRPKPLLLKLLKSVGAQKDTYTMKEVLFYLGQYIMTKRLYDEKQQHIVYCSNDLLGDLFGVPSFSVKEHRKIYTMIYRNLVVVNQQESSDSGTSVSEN

## C[C@@H](Nc1nc(-c2noc(=O)[nH]2)nc2nc(N3CCOCC3c3ccc(Cl)cc3)n(C[C@H]3CC[C@H](C)CC3)c12)C1CCC1 (stereo partly drawn) [Example 11.99, 3-{8-[3-(4-chlorophenyl)morpholin-4-yl]-6-{[(1R)-1-cyclobutylethyl]amino}-7-[(trans-4-methylcyclohexyl)methyl]-7H-purin-2-yl}-1,2,4-oxadiazol-5(4H)-one]
  IC50: 3.43 nM

## C[C@@H](Nc1nc(-c2noc(=O)[nH]2)nc2nc(N3CCOCC3c3ccccc3Cl)n(C[C@H]3CC[C@H](C)CC3)c12)C1CCC1 (stereo partly drawn) [Example 11.100, 3-{8-[3-(2-chlorophenyl)morpholin-4-yl]-6-{[(1R)-1-cyclobutylethyl]amino}-7-[(trans-4-methylcyclohexyl)methyl]-7H-purin-2-yl}-1,2,4-oxadiazol-5(4H)-one]
  IC50: 0.936 nM

## C[C@@H](Nc1nc(-c2noc(=O)[nH]2)nc2nc(N3CCOC[C@H]3Cc3ccccc3)n(C[C@H]3CC[C@H](C)CC3)c12)C1CCC1 [Example 11.101, 3-{8-[(3R)-3-benzylmorpholin-4-yl]-6-{[(1R)-1-cyclobutylethyl]amino}-7-[(trans-4-methylcyclohexyl)methyl]-7H-purin-2-yl}-1,2,4-oxadiazol-5(4H)-one]
  IC50: 16.2 nM

## COC1(C)CN(c2nc3nc(-c4noc(=O)[nH]4)nc(N[C@H](C)C4CCC4)c3n2C[C@H]2CC[C@H](C)CC2)C1 [Example 11.102, 3-(6-{[(1R)-1-cyclobutylethyl]amino}-8-(3-methoxy-3-methylazetidin-1-yl)-7-[(trans-4-methylcyclohexyl)methyl]-7H-purin-2-yl)-1,2,4-oxadiazol-5(2H)-one]
  IC50: 20.8 nM

## C[C@@H](Nc1nc(-c2noc(=O)[nH]2)nc2nc(N3CC(C)(O)C3)n(C[C@H]3CC[C@H](C)CC3)c12)C1CCC1 [Example 11.103, 3-(6-{[(1R)-1-cyclobutylethyl]amino}-8-(3-hydroxy-3-methylazetidin-1-yl)-7-[(trans-4-methylcyclohexyl)methyl]-7H-purin-2-yl)-1,2,4-oxadiazol-5(2H)-one]
  IC50: 36.2 nM

## C[C@@H](Nc1nc(-c2noc(=O)[nH]2)nc2nc(N3CCOCC(F)(F)C3)n(C[C@H]3CC[C@H](C)CC3)c12)C1CCC1 [Example 11.104, 3-(6-{[(1R)-1-cyclobutylethyl]amino}-8-(6,6-difluoro-1,4-oxazepan-4-yl)-7-[(trans-4-methylcyclohexyl)methyl]-7H-purin-2-yl)-1,2,4-oxadiazol-5(2H)-one]
  IC50: 9.24 nM

## C[C@@H](Nc1nc(-c2noc(=O)[nH]2)nc2nc(N3CCCOCC3)n(C[C@H]3CC[C@H](C)CC3)c12)C1CCC1 [Example 11.105, 3-[6-{[(1R)-1-cyclobutylethyl]amino}-7-[(trans-4-methylcyclohexyl)methyl]-8-(1,4-oxazepan-4-yl)-7H-purin-2-yl]-1,2,4-oxadiazol-5(2H)-one]
  IC50: 42.6 nM

## C[C@H](Nc1nc2nc(-c3noc(=O)[nH]3)nc(N[C@H](C)C3CCC3)c2n1C[C@H]1CC[C@H](C)CC1)c1cccc(F)c1 [Example 11.106, 3-(6-{[(1R)-1-cyclobutylethyl]amino}-8-{[(1S)-1-(3-fluorophenyl)ethyl]amino}-7-[(trans-4-methylcyclohexyl)methyl]-7H-purin-2-yl)-1,2,4-oxadiazol-5(2H)-one]
  IC50: 3.22 nM

## COC(C)(C)C1CCCN1c1nc2nc(-c3noc(=O)[nH]3)nc(N[C@H](C)C3CCC3)c2n1C[C@H]1CC[C@H](C)CC1 (stereo partly drawn) [Example 11.107, 3-(6-{[(1R)-1-cyclobutylethyl]amino}-8-[2-(1-methoxy-1-methylethyl)pyrrolidin-1-yl]-7-[(trans-4-methylcyclohexyl)methyl]-7H-purin-2-yl)-1,2,4-oxadiazol-5(2H)-one]
  IC50: 0.507 nM

## Cc1nonc1C1CCCN1c1nc2nc(-c3noc(=O)[nH]3)nc(N[C@H](C)C3CCC3)c2n1C[C@H]1CC[C@H](C)CC1 (stereo partly drawn) [Example 11.108, 3-(6-{[(1R)-1-cyclobutylethyl]amino}-7-[(trans-4-methylcyclohexyl)methyl]-8-[2-(4-methyl-1,2,5-oxadiazol-3-yl)pyrrolidin-1-yl]-7H-purin-2-yl)-1,2,4-oxadiazol-5(2H)-one]
  IC50: 1.6 nM

## Cc1nn(C)cc1CNc1nc2nc(-c3noc(=O)[nH]3)nc(N[C@H](C)C3CCC3)c2n1C[C@H]1CC[C@H](C)CC1 [Example 11.109, 3-(6-{[(1R)-1-cyclobutylethyl]amin ο}-8-{[(1,3-dimethyl-1H-pyrazol-4-yl)methyl]amino} -7-[(trans-4-methylcyclohexyl)methyl]-7H-purin-2-yl)-1,2,4-oxadiazol-5(2H)-one]
  IC50: 55.6 nM

## C[C@@H](Nc1nc(-c2noc(=O)[nH]2)nc2nc(N3CCC[C@H]3c3nnnn3C)n(C[C@H]3CC[C@H](C)CC3)c12)C1CCC1 [Example 11.110, 3-(6-{[(1R)-1-cyclobutylethyl]amino}-7-[(trans-4-methylcyclohexyl)methyl]-8-[(2S)-2-(1-methyl-1H-tetrazol-5-yl)pyrrolidin-1-yl]-7H-purin-2-yl)-1,2,4-oxadiazol-5(2H)-one]
  IC50: 6.76 nM

## Cc1nonc1CNc1nc2nc(-c3noc(=O)[nH]3)nc(N[C@H](C)C3CCC3)c2n1C[C@H]1CC[C@H](C)CC1 [Example 11.111, 3-(6-{[(1R)-1-cyclobutylethyl]amino}-7-[(trans-4-methylcyclohexyl)methyl]-8-{[(4-methyl-1,2,5-oxadiazol-3-yl)methyl]amino}-7H-purin-2-yl)-1,2,4-oxadiazol-5(2H)-one]
  IC50: 6.34 nM

## C[C@@H](Nc1nc(-c2noc(=O)[nH]2)nc2nc(NCc3c[nH]nc3-c3ccccc3)n(C[C@H]3CC[C@H](C)CC3)c12)C1CCC1 [Example 11.112, 3-(6-{[(1R)-1-cyclobutylethyl]amino}-7-[(trans-4-methylcyclohexyl)methyl]-8-{[(3-phenyl-1H-pyrazol-4-yl)methyl]amino}-7H-purin-2-yl)-1,2,4-oxadiazol-5(2H)-one]
  IC50: 215 nM

## C[C@@H](Nc1nc(-c2noc(=O)[nH]2)nc2nc(N3CCC(C)(O)C3)n(C[C@H]3CC[C@H](C)CC3)c12)C1CCC1 (stereo partly drawn) [Example 11.113, 3-(6-{[(1R)-1-cyclobutylethyl]amino}-8-(3-hydroxy-3-methylpyrrolidin-1-yl)-7-[(trans-4-methylcyclohexyl)methyl]-7H-purin-2-yl)-1,2,4-oxadiazol-5(2H)-one]
  IC50: 57.7 nM

## COC1CCN(c2nc3nc(-c4noc(=O)[nH]4)nc(N[C@H](C)C4CCC4)c3n2C[C@H]2CC[C@H](C)CC2)C1 (stereo partly drawn) [Example 11.114, 3-(6-{[(1R)-1-cyclobutylethyl]amino}-8-(3-methoxypyrrolidin-1-yl)-7-[(trans-4-methylcyclohexyl)methyl]-7H-purin-2-yl)-1,2,4-oxadiazol-5(2H)-one]
  IC50: 52.9 nM

## CCN(C)c1nc2nc(-c3noc(=O)[nH]3)nc(N[C@H](C)C3CCC3)c2n1C[C@H]1CC[C@H](C)CC1 [Example 11.115, 3-(6-{[(1R)-1-cyclobutylethyl]amino}-8-[ethyl(methyl)amino]-7-[(trans-4-methylcyclohexyl)methyl]-7H-purin-2-yl)-1,2,4-oxadiazol-5(2H)-one]
  IC50: 8.13 nM

## COCCN(C)c1nc2nc(-c3noc(=O)[nH]3)nc(N[C@H](C)C3CCC3)c2n1C[C@H]1CC[C@H](C)CC1 [Example 11.116, 3-(6-{[(1R)-1-cyclobutylethyl]amino}-8-[(2-methoxyethyl)(methyl)amino]-7-[(trans-4-methylcyclohexyl)methyl]-7H-purin-2-yl)-1,2,4-oxadiazol-5(2H)-one]
  IC50: 21 nM

## C[C@@H](Nc1nc(-c2noc(=O)[nH]2)nc2nc(N3CCOCC3c3ccc(Cl)cc3)n(C[C@H]3CC[C@H](C)CC3)c12)C1CCC1 (stereo partly drawn) [Example 11.119, 3-{8-[3-(4-chlorophenyl)morpholin-4-yl]-6-{[(1R)-1-cyclobutylethyl]amino}-7-[(trans-4-methylcyclohexyl)methyl]-7H-purin-2-yl}-1,2,4-oxadiazol-5(4H)-one]
  IC50: 24.8 nM

## C[C@@H]1CN(C)C(=O)CN1c1nc2nc(-c3noc(=O)[nH]3)nc(N[C@H](C)C3CCC3)c2n1C[C@H]1CC[C@H](C)CC1 [Example 11.120, (5R)-4-[6-{[(1R)-1-cyclobutylethyl]amino}-7-[(trans-4-methylcyclohexyl)methyl]-2-(5-oxo-4,5-dihydro-1,2,4-oxadiazol-3-yl)-7H-purin-8-yl]-1,5-dimethylpiperazin-2-one]
  IC50: 5.57 nM

## CC1CSCCN1c1nc2nc(-c3noc(=O)[nH]3)nc(N[C@H](C)C3CCC3)c2n1C[C@H]1CC[C@H](C)CC1 (stereo partly drawn) [Example 11.123, 3-[6-{[(1R)-1-cyclobutylethyl]amino}-7-[(trans-4-methylcyclohexyl)methyl]-8-(3-methylthiomorpholin-4-yl)-7H-purin-2-yl]-1,2,4-oxadiazol-5(2H)-one]
  IC50: 4.39 nM

## CC1CS(=O)(=O)CCN1c1nc2nc(-c3noc(=O)[nH]3)nc(N[C@H](C)C3CCC3)c2n1C[C@H]1CC[C@H](C)CC1 (stereo partly drawn) [Example 11.124, 3-[6-{[(1R)-1-cyclobutylethyl]amino}-7-[(trans-4-methylcyclohexyl)methyl]-8-(3-methyl-1,1-dioxidothiomorpholin-4-yl)-7H-purin-2-yl]-1,2,4-oxadiazol-5(2H)-one]
  IC50: 9.62 nM

## C[C@@H](Nc1nc(-c2noc(=O)[nH]2)nc2nc(N3CCOC4CC43)n(C[C@H]3CC[C@H](C)CC3)c12)C1CCC1 (stereo partly drawn) [Example 11.127, 3-[6-{[(1R)-1-cyclobutylethyl]amino}-7-[(trans-4-methylcyclohexyl)methyl]-8-(2-oxa-5-azabicyclo[4.1.0]hept-5-yl)-7H-purin-2-yl]-1,2,4-oxadiazol-5(4H)-one]
  IC50: 26.2 nM

## C[C@@H](Nc1nc(-c2noc(=O)[nH]2)nc2nc(N3CCC[C@H]3C(F)(F)F)n(C[C@H]3CC[C@H](C)CC3)c12)C1CCC1 [Example 11.128, 3-(6-{[(1R)-1-cyclobutylethyl]amino}-7-[(trans-4-methylcyclohexyl)methyl]-8-[(2S)-2-(trifluoromethyl)pyrrolidin-1-yl]-7H-purin-2-yl)-1,2,4-oxadiazol-5(4H)-one]
  IC50: 0.642 nM
